Source: patent US8192962B2, “Processes for detecting toxic substances” (Daikin Industries, Ltd., priority 2001, dated 2012)

Test system: Unknown protein yeast genes
Experiment: DNA chip mRNA expression in yeast, unknown protein yeast genes (Table 1)
Format: cell-based, Saccharomyces cerevisiae S288C
In short: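 First, S288C yeast grown in YPD at 25° C. are dosed in log phase with one toxicant (growth-inhibiting, not lethal) for 2 h. Next, total RNA is extracted and poly(A) mRNA isolated and reverse-transcribed with Cy3/Cy5-dUTP. Finally, whole-genome chip fluorescence is read relative to unexposed cells.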

N#Cc1c(Cl)c(Cl)c(Cl)c(C#N)c1Cl [(9), 2,4,5,6-tetrachloro-1,3-benzenedicarbonitrile]
The level of expressed mRNA in the presence of chemical substance/The level of expressed mRNA in the absence of chemical substance (yeast gene YKL195W, incubated two hours with chemical substance): 3.6 | The level of expressed mRNA in the presence of chemical substance/The level of expressed mRNA in the absence of chemical substance (yeast gene YKR018C): 3.9 | The level of expressed mRNA in the presence of chemical substance/The level of expressed mRNA in the absence of chemical substance (yeast gene YKR046C): 3.9 | The level of expressed mRNA in the presence of chemical substance/The level of expressed mRNA in the absence of chemical substance (yeast gene YKR091W, incubated two hours with chemical substance): 1.0 | The level of expressed mRNA in the presence of chemical substance/The level of expressed mRNA in the absence of chemical substance (yeast gene YLR054C, incubated two hours with chemical substance): 2.7 | The level of expressed mRNA in the presence of chemical substance/The level of expressed mRNA in the absence of chemical substance (yeast gene YLR149C, incubated two hours with chemical substance): 6.2 | The level of expressed mRNA in the presence of chemical substance/The level of expressed mRNA in the absence of chemical substance (yeast gene YLR152C, incubated two hours with chemical substance): 0.6 | The level of expressed mRNA in the presence of chemical substance/The level of expressed mRNA in the absence of chemical substance (yeast gene YLR161W): 1.0 | The level of expressed mRNA in the presence of chemical substance/The level of expressed mRNA in the absence of chemical substance (yeast gene YLR177W): 1.0 | The level of expressed mRNA in the presence of chemical substance/The level of expressed mRNA in the absence of chemical substance (yeast gene YLR194C, incubated two hours with chemical substance): 0.9 | The level of expressed mRNA in the presence of chemical substance/The level of expressed mRNA in the absence of chemical substance (yeast gene YLR324W, incubated two hours with chemical substance): 3.1 | The level of expressed mRNA in the presence of chemical substance/The level of expressed mRNA in the absence of chemical substance (yeast gene YLR338W): 7.9 | The level of expressed mRNA in the presence of chemical substance/The level of expressed mRNA in the absence of chemical substance (yeast gene YLR346C): 8.6 | The level of expressed mRNA in the presence of chemical substance/The level of expressed mRNA in the absence of chemical substance (yeast gene YLR350W, incubated two hours with chemical substance): 0.6 | The level of expressed mRNA in the presence of chemical substance/The level of expressed mRNA in the absence of chemical substance (yeast gene YLR387C, incubated two hours with chemical substance): 7.8 | The level of expressed mRNA in the presence of chemical substance/The level of expressed mRNA in the absence of chemical substance (yeast gene YLR460C): 13.9 | The level of expressed mRNA in the presence of chemical substance/The level of expressed mRNA in the absence of chemical substance (yeast gene YML117W, incubated two hours with chemical substance): 1.0 | The level of expressed mRNA in the presence of chemical substance/The level of expressed mRNA in the absence of chemical substance (yeast gene YMR009W, incubated two hours with chemical substance): 3.4 | The level of expressed mRNA in the presence of chemical substance/The level of expressed mRNA in the absence of chemical substance (yeast gene YMR067C, incubated two hours with chemical substance): 4.0 | The level of expressed mRNA in the presence of chemical substance/The level of expressed mRNA in the absence of chemical substance (yeast gene YMR090W): 16.7 | The level of expressed mRNA in the presence of chemical substance/The level of expressed mRNA in the absence of chemical substance (yeast gene YMR097C, incubated two hours with chemical substance): 2.1 | The level of expressed mRNA in the presence of chemical substance/The level of expressed mRNA in the absence of chemical substance (yeast gene YMR102C, incubated two hours with chemical substance): 1.7 | The level of expressed mRNA in the presence of chemical substance/The level of expressed mRNA in the absence of chemical substance (yeast gene YMR107W, incubated two hours with chemical substance): 6.0 | The level of expressed mRNA in the presence of chemical substance/The level of expressed mRNA in the absence of chemical substance (yeast gene YMR180C, incubated two hours with chemical substance): 1.8 | The level of expressed mRNA in the presence of chemical substance/The level of expressed mRNA in the absence of chemical substance (yeast gene YMR184W, incubated two hours with chemical substance): 2.1 | The level of expressed mRNA in the presence of chemical substance/The level of expressed mRNA in the absence of chemical substance (yeast gene YMR191W, incubated two hours with chemical substance): 2.2 | The level of expressed mRNA in the presence of chemical substance/The level of expressed mRNA in the absence of chemical substance (yeast gene YMR251W): 3.1 | The level of expressed mRNA in the presence of chemical substance/The level of expressed mRNA in the absence of chemical substance (yeast gene YMR295C, incubated two hours with chemical substance): 1.0 | The level of expressed mRNA in the presence of chemical substance/The level of expressed mRNA in the absence of chemical substance (yeast gene YMR316W, incubated two hours with chemical substance): 2.1 | The level of expressed mRNA in the presence of chemical substance/The level of expressed mRNA in the absence of chemical substance (yeast gene YNL044W, incubated two hours with chemical substance): 0.8 | The level of expressed mRNA in the presence of chemical substance/The level of expressed mRNA in the absence of chemical substance (yeast gene YNL074C, incubated two hours with chemical substance): 1.5 | The level of expressed mRNA in the presence of chemical substance/The level of expressed mRNA in the absence of chemical substance (yeast gene YNL092W, incubated two hours with chemical substance): 2.3 | The level of expressed mRNA in the presence of chemical substance/The level of expressed mRNA in the absence of chemical substance (yeast gene YNL115C, incubated two hours with chemical substance): 2.6 | The level of expressed mRNA in the presence of chemical substance/The level of expressed mRNA in the absence of chemical substance (yeast gene YNL156C, incubated two hours with chemical substance): 2.4 | The level of expressed mRNA in the presence of chemical substance/The level of expressed mRNA in the absence of chemical substance (yeast gene YNL234W, incubated two hours with chemical substance): 2.6 | The level of expressed mRNA in the presence of chemical substance/The level of expressed mRNA in the absence of chemical substance (yeast gene YNL281W, incubated two hours with chemical substance): 2.8 | The level of expressed mRNA in the presence of chemical substance/The level of expressed mRNA in the absence of chemical substance (yeast gene YNL305C, incubated two hours with chemical substance): 2.9 | The level of expressed mRNA in the presence of chemical substance/The level of expressed mRNA in the absence of chemical substance (yeast gene YNR068C, incubated two hours with chemical substance): 6.7 | The level of expressed mRNA in the presence of chemical substance/The level of expressed mRNA in the absence of chemical substance (yeast gene YOL032W, incubated two hours with chemical substance): 4.5 | The level of expressed mRNA in the presence of chemical substance/The level of expressed mRNA in the absence of chemical substance (yeast gene YOL036W, incubated two hours with chemical substance): 3.1 | The level of expressed mRNA in the presence of chemical substance/The level of expressed mRNA in the absence of chemical substance (yeast gene YOL047C, incubated two hours with chemical substance): 0.6 | The level of expressed mRNA in the presence of chemical substance/The level of expressed mRNA in the absence of chemical substance (yeast gene YOL071W, incubated two hours with chemical substance): 4.4 | The level of expressed mRNA in the presence of chemical substance/The level of expressed mRNA in the absence of chemical substance (yeast gene YOL082W, incubated two hours with chemical substance): 3.4 | The level of expressed mRNA in the presence of chemical substance/The level of expressed mRNA in the absence of chemical substance (yeast gene YOL083W, incubated two hours with chemical substance): 2.7 | The level of expressed mRNA in the presence of chemical substance/The level of expressed mRNA in the absence of chemical substance (yeast gene YOL117W, incubated two hours with chemical substance): 1.3 | The level of expressed mRNA in the presence of chemical substance/The level of expressed mRNA in the absence of chemical substance (yeast gene YOL131W, incubated two hours with chemical substance): 8.4 | The level of expressed mRNA in the presence of chemical substance/The level of expressed mRNA in the absence of chemical substance (yeast gene YOL150C): 10.8 | The level of expressed mRNA in the presence of chemical substance/The level of expressed mRNA in the absence of chemical substance (yeast gene YOL162W, incubated two hours with chemical substance): 12.0 | The level of expressed mRNA in the presence of chemical substance/The level of expressed mRNA in the absence of chemical substance (yeast gene YOR019W, incubated two hours with chemical substance): 3.5 | The level of expressed mRNA in the presence of chemical substance/The level of expressed mRNA in the absence of chemical substance (yeast gene YOR161C): 1.0 | The level of expressed mRNA in the presence of chemical substance/The level of expressed mRNA in the absence of chemical substance (yeast gene YOR197W, incubated two hours with chemical substance): 0.8 | The level of expressed mRNA in the presence of chemical substance/The level of expressed mRNA in the absence of chemical substance (yeast gene YPL087W, incubated two hours with chemical substance): 1.0 | The level of expressed mRNA in the presence of chemical substance/The level of expressed mRNA in the absence of chemical substance (yeast gene YPL150W): 3.1 | The level of expressed mRNA in the presence of chemical substance/The level of expressed mRNA in the absence of chemical substance (yeast gene YPL196W, incubated two hours with chemical substance): 10.9 | The level of expressed mRNA in the presence of chemical substance/The level of expressed mRNA in the absence of chemical substance (yeast gene YPL206C, incubated two hours with chemical substance): 1.7 | The level of expressed mRNA in the presence of chemical substance/The level of expressed mRNA in the absence of chemical substance (yeast gene YPL222W, incubated two hours with chemical substance): 7.4 | The level of expressed mRNA in the presence of chemical substance/The level of expressed mRNA in the absence of chemical substance (yeast gene YPL225W): 1.0 | The level of expressed mRNA in the presence of chemical substance/The level of expressed mRNA in the absence of chemical substance (yeast gene YPR023C, incubated two hours with chemical substance): 4.4 | The level of expressed mRNA in the presence of chemical substance/The level of expressed mRNA in the absence of chemical substance (yeast gene YPR151C, incubated two hours with chemical substance): 3.0
